Data as given in ChEMBL document CHEMBL1145593, “Design, synthesis and evaluation of potent thymidylate synthase X inhibitors” (Bioorg Med Chem Lett, 2008).
Active and inactive are the calls of the source. The calls are words filed in the database; no cut-off is given here.

How the values were obtained:
[1] = molecular target: T1, Probable flavin-dependent thymidylate synthase (Paramecium bursaria Chlorella virus 1) (UniProt O41156); experiment: Reversal of inhibition of PBCV1 Thy X at 20 uM in presence of dUMP
T1 sequence (whole entry): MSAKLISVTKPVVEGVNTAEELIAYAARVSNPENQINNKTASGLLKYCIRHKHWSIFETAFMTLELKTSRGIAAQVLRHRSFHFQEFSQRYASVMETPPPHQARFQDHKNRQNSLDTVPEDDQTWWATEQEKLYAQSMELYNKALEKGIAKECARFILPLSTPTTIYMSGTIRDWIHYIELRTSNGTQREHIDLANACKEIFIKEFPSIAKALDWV

[2] = molecular target: T1, Probable flavin-dependent thymidylate synthase (Paramecium bursaria Chlorella virus 1); experiment: Inhibition of PBCV1 Thymidylate synthase X in presence of bovine serum albumin surfactant
[3] = molecular target: T1, Probable flavin-dependent thymidylate synthase (Paramecium bursaria Chlorella virus 1); experiment: Inhibition of PBCV1 Thymidylate synthase X in presence of triton X100 surfactant
[4] = molecular target: T2, Probable flavin-dependent thymidylate synthase (Paramecium bursaria Chlorella virus 1, UniProt O41156); experiment: Inhibition of PBCV1 Thymidylate synthase X
T2 sequence (O41156 whole entry): T1 sequence (whole entry)

CCCCCCC(=O)N(CC(=O)O)C[C@@H]1CSC(c2ccccc2)N1C(=O)c1ccccc1 (stereo partly drawn)
Activity [1]: Active
Activity [2]: Active
Activity [3]: Active
IC50 [4]: 130 nM
Ki [4]: 130 nM

CCOC(=O)[C@@H]1CSC(c2ccccc2)N1C(=O)c1cn(CCc2ccc(F)cc2)nn1 (stereo partly drawn)
Ki [4]: 2000 nM

CCOC(=O)[C@@H]1CSC(c2ccccc2)N1C(=O)c1cn(CCCCCCCO)nn1 (stereo partly drawn)
Ki [4]: 3500 nM

CCOC(=O)[C@@H]1CSC(c2ccccc2)N1C(=O)c1cn(CCCNC(=O)C(F)(F)F)nn1 (stereo partly drawn)
Activity [1]: inactive
Activity [2]: Active
Activity [3]: Active
IC50 [4]: 57 nM
Ki [4]: 57 nM

CCOC(=O)[C@@H]1CSC(c2ccccc2)N1C(=O)c1cn(CCc2ccsc2)nn1 (stereo partly drawn)
Ki [4]: 1000 nM
